Experimental data as given in PubChem BioAssay (NCI).
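Values below derive from 48-hour exposures of cells grown in 96-well plates, with endpoints linearly interpolated between the two concentrations bracketing the appropriate inhibition level. GI50: concentration for 50% inhibition of growth. TGI marks complete inhibition of growth.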

Assays:
Test in all cases: growth of human tumour cells (NCI), 48 h
UACC-62 melanoma = system: UACC-62 melanoma
T-47D breast = system: T-47D breast
NCI-H23 lung = system: NCI-H23 lung
M14 melanoma = system: M14 melanoma
SK-MEL-28 melanoma = system: SK-MEL-28 melanoma
SR leukemia = system: SR leukemia
UO-31 renal = system: UO-31 renal
MALME-3M melanoma = system: MALME-3M melanoma
HS 578T breast = system: HS 578T breast
K-562 leukemia = system: K-562 leukemia

| SMILES | GI50 (UACC-62 melanoma) [µM] | TGI (UACC-62 melanoma) [µM] | GI50 (T-47D breast) [µM] | TGI (T-47D breast) [µM] | GI50 (NCI-H23 lung) [µM] | TGI (NCI-H23 lung) [µM] | GI50 (M14 melanoma) [µM] | TGI (M14 melanoma) [µM] | GI50 (SK-MEL-28 melanoma) [µM] | TGI (SK-MEL-28 melanoma) [µM] | GI50 (SR leukemia) [µM] | TGI (SR leukemia) [µM] | GI50 (UO-31 renal) [µM] | TGI (UO-31 renal) [µM] | GI50 (MALME-3M melanoma) [µM] | TGI (MALME-3M melanoma) [µM] | GI50 (HS 578T breast) [µM] | TGI (HS 578T breast) [µM] | GI50 (K-562 leukemia) [µM] | TGI (K-562 leukemia) [µM] |
| --- | --- | --- | --- | --- | --- | --- | --- | --- | --- | --- | --- | --- | --- | --- | --- | --- | --- | --- | --- | --- |
| CC(C)c1ccc2c(N=Nc3ccc(S(N)(=O)=O)cc3)c(O)[nH]c2c1 | > 25 | > 25 | > 15.3 | > 25 | 11.1 | > 25 | > 25 | > 25 | > 25 | > 25 | > 16.2 | > 25 | > 11.9 | > 20.7 | 12.4 | > 25 | 8.07 | > 25 | > 25 | > 25 |
| Fc1ccc(CNc2c3ccccc3nc3ccccc23)cc1 | 2.58 | 9.13 | 2.53 | 10 | 2.36 | 8.57 | 2.97 | 12.4 | 3.27 | 11.6 | 2.2 | 7.75 | 1.2 | 4.14 | 2.18 | 5.48 | 3.05 | 10.7 | 2.49 | 16.2 |
| CCOC(=O)C1=C(N)Oc2c(sc3c(C)cccc23)C1c1ccc(Cl)cc1 (stereo not drawn) | 1.08 | 13.3 | 2.79 | 18.8 | 2.5 | 10.5 | 2.46 | 11.2 | 10.3 | 23.6 | 1.49 | 18 | 3.03 | 16.7 | 5.19 | 19.6 | 1.78 | 6.95 | 1.32 | > 100 |
| CN(C)CCCNC(=O)c1cc(NC(=O)CCNC(=O)c2ccc3c(c2)C(=O)c2ccccc2C3=O)cn1C | > 100 | > 100 | 32.5 | 75.3 | > 100 | > 100 | > 100 | > 100 | – | – | 31 | 99.6 | > 100 | > 100 | – | – | > 100 | > 100 | > 100 | > 100 |
| O=C1Nc2cc(Cl)ccc2Oc2cc(Oc3ccccc3)ccc21 | 4.15 | 91.3 | 4.79 | 36.8 | 3.78 | 29.9 | 4.76 | 50.2 | 5.94 | 32.8 | 2.89 | 29.5 | 6.52 | > 100 | 10.9 | 47.4 | 3.31 | 27.5 | – | – |
| CN(CCCCCl)P(=O)(OCc1ccc([N+](=O)[O-])o1)C(F)(F)c1ccc(CC(=O)N[C@@H](CC(=O)O)C(=O)N[C@@H](Cc2ccc(C(F)(F)P(=O)(OCc3ccc([N+](=O)[O-])o3)N(C)CCCCCl)cc2)C(N)=O)cc1 (stereo partly drawn) | 58 | > 100 | 39.1 | > 100 | 51.7 | > 100 | – | – | 42.4 | > 100 | 22.9 | 49.9 | > 100 | > 100 | > 100 | > 100 | 37.6 | > 100 | 22.4 | 55.7 |
| O=C(O)CN(CC(=O)O)Cc1cc2c(cc1O)Oc1cc(O)c(CN(CC(=O)O)CC(=O)O)cc1C21OC(=O)c2ccccc21 | – | > 100 | – | > 100 | – | > 100 | – | > 100 | – | > 100 | – | > 100 | – | > 100 | – | – | – | > 100 | – | > 100 |
| CCOC(=O)C1c2[nH]c3ccccc3c2CCN1C(=O)c1ccco1 (stereo not drawn) | – | > 10 | – | > 10 | – | – | – | > 10 | – | > 10 | – | > 10 | – | – | – | > 10 | – | > 10 | – | > 10 |
| O=C(/C=C/c1ccccn1)c1ccccc1O | 1.82 | 3.87 | 2.45 | 8.36 | 2.35 | 8.76 | 2 | 4.28 | 2.09 | 4.22 | 1.7 | 4.99 | 1.31 | 2.6 | – | – | 2.36 | 7.27 | 2.09 | > 100 |
| O=C(CCCCCCC(=O)N/N=C/c1ccc(N(c2ccccc2)c2ccccc2)cc1)NO | 0.445 | 1.98 | 0.309 | 2.41 | 2.41 | 10.7 | – | – | 3.06 | 11.6 | 2.38 | 14.1 | 1.44 | 4.4 | 3.25 | 15 | 6.14 | 31.2 | – | – |
| COC1OCC(OS(=O)(=O)c2ccc(C)cc2)C(OC(=O)c2ccccc2)C1OC(=O)c1ccccc1 (stereo not drawn) | 3.48 | > 100 | 3.11 | > 100 | > 100 | > 100 | – | – | 4.62 | > 100 | 3.07 | > 100 | > 100 | > 100 | 13.7 | > 100 | 1.89 | 27.4 | 3.16 | > 100 |
| COc1ccc(-c2cn(-c3ccc(Cl)cc3)c(=S)[nH]2)cc1OC | – | – | 6.09 | > 100 | > 100 | > 100 | – | – | 22.3 | > 100 | 2.91 | > 100 | 39.6 | > 100 | 68.4 | > 100 | 19.2 | > 100 | > 100 | > 100 |
| O=C(CCc1nnc(-c2c(Cl)cccc2Cl)o1)c1nc2ccccc2[nH]1 | 3.34 | 27.8 | 3.34 | 60 | 3.23 | 63.2 | 5.86 | 31.5 | 12.7 | 42.7 | 2.63 | 15.2 | 6.71 | 32.9 | 13 | 52.6 | 9.71 | 93.9 | – | – |
| O=C(Nc1ncc(Cc2ccccc2)s1)c1ccc2c(c1)OCCO2 | 0.0465 | 12.3 | 0.0523 | > 100 | 0.0679 | > 100 | – | – | 0.0823 | > 100 | 0.0487 | > 100 | 0.0756 | > 100 | 0.042 | > 100 | 0.0353 | > 100 | 0.0383 | > 100 |
